Assay results: patent publication US20200121695A1, “COMPOSITIONS AND METHODS FOR TREATING ITCH, SKIN INFLAMMATION, AND PRURITUS” (priority 2017, published 2020)

Assay: Case report: with menstrual-cycle itching, elevated ALP and PBC/AIH overlap syndrome
Type: in vivo, human
Conditions: person, Ursodiol 300 mg three times a day plus mycophenolate mofetil 500 mg four times a day for 1 year, together with replacement of Nuva Ring by copper IUD and dietary changes
Text: The itching was predominantly concentrated on hands, feet, back, and stomach area, and the symptoms disappeared as soon as menstruation began. They previously used Nuva Ring for about three years, followed by approximately 5.5 year hiatus. The medical history and gynecological clinical examination were not unusual, with the exception of elevated liver enzymes having been discovered about two years prior to visit. […] The initial treatment thus comprised short-term moderate amounts of Prednisone, with the regiment starting about the time of re-start of the Nuva Ring use. Approximately two months after the start of Prednisone regimen the patient was diagnosed with an overlap syndrome of Primary Biliary Cholangitis/Cirrhosis (PBC) and Autoimmune Hepatitis (AIH). […] New treatment regimen was implemented. Nuva Ring was replaced with a non-hormonal intrauterine device (copper) to enable treatment with immunosuppressive drugs. Additionally steroid drugs, Ursodiol (300 mg three times a day) and mycophenolate mofetil (Cellcept, 500 mg, four times a day), regimen was started in order to reduce AST levels, and continued for 1 year. Finally dietary changes eliminating foods that are rich in zinc and vitamin B12 were effected.

SMILES	itching symptoms at the time of menstruation
C[C@H](CCC(=O)O)[C@H]1CC[C@H]2[C@@H]3[C@@H](O)C[C@@H]4C[C@H](O)CC[C@]4(C)[C@H]3CC[C@]12C [Ursodiol]	significant reduction of the itching symptoms
COc1c(C)c2c(c(O)c1C/C=C(\C)CCC(=O)OCCN1CCOCC1)C(=O)OC2 [mycophenolate mofetil]	significant reduction of the itching symptoms
